Patent US7109193B2, “Tricyclic diazepines tocolytic oxytocin receptor antagonists” (Wyeth, priority 2001, dated 2006)

Molecular target: T1, human vasopressin V1a receptor subtype (Homo sapiens, UniProt P37288)
T1 construct: host or cells: CHO cells (pZeoSV vector for the Thibonnier line)
Assay: Vasopressin binding in Chinese Hamster Ovary cell membranes expressing human vasopressin V1a subtype receptors
Settings: CHO cell membranes, [3H]Manning ligand; for IC50: values in parentheses; for inhibition at 0.1 µM: 100 nM, values without parentheses
Procedure, shortened: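 Membranes from CHO cells expressing human V1a receptor were incubated with [3H]Manning ligand (added as 20 μL of 8 nM) in pH 7.4 Tris buffer with MgCl2, BSA and protease inhibitors, 60 min at room temperature. Bound radioactivity was counted after filtration; values are percent inhibition at a stated concentration or IC50.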

T1 sequence (P37288 whole entry): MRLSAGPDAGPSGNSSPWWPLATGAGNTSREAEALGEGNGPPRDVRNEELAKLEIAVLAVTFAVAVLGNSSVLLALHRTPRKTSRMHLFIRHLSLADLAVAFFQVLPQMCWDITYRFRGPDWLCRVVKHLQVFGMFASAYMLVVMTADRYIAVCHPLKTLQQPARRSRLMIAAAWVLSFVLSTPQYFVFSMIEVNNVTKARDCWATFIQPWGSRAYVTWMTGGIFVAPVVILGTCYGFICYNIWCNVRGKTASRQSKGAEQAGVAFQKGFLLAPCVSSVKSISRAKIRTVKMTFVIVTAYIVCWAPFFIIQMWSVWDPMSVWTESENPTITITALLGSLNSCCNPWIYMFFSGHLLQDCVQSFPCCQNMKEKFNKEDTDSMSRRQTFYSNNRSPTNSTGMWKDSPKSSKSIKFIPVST

Row | Compound | IC50 | inhibition at 0.1 µM
1 | COc1cccc(-c2cc(OC)c(C(=O)N3Cc4ccc(C(=O)N(C)CCCN(C)C)n4Cc4ccccc43)cc2Cl)c1 [Example 99, 10-[(6-Chloro-3,3′-dimethoxy[1,1′-biphenyl]-4-yl)carbonyl]-N-[3-(dimethylamino)propyl]-N-methyl-10,11-dihydro-5H-pyrrolo[2,1-c][1,4]benzodiazepine-3-carboxamide] | 0.311 µM | –
2 | COc1cc(C(=O)N2Cc3ccc(C(=O)NCCCN(C)C)n3Cc3ccccc32)ccc1-c1cccc2ccccc12 [Example 80, N-[3-(Dimethylamino)propyl]-10-[3-methoxy-4-(1-naphthyl)benzoyl]-10,11-dihydro-5H-pyrrolo[2,1-c][1,4]benzodiazepine-3-carboxamide] | – | 16%
3 | COc1cccc(-c2ccc(C(=O)N3Cc4ccc(C(=O)NCCCN(C)C)n4Cc4ccccc43)cc2OC)c1 [Example 82, 10-[(2,3′-Dimethoxy[1,1′-biphenyl]-4-yl)carbonyl]-N-[3-(dimethylamino)propyl]-10,11-dihydro-5H-pyrrolo[2,1-c][1,4]benzodiazepine-3-carboxamide] | – | 37%
4 | CN(C)CCN(C)C(=O)c1ccc2n1Cc1ccccc1N(C(=O)c1ccc(-c3cccc4ccccc34)cc1Cl)C2 [Example 96, 10-[2-Chloro-4-(1-naphthyl)benzoyl]-N-[2-(dimethylamino)ethyl]-N-methyl-10,11-dihydro-5H-pyrrolo[2,1-c][1,4]benzodiazepine-3-carboxamide] | – | 10%
5 | COc1cc(-c2ccccc2C)c(Cl)cc1C(=O)N1Cc2ccc(C(=O)N3CCN(C)CC3)n2Cc2ccccc21 [Example 47, {10-[(6-Chloro-3-methoxy-2′-methyl[1,1′-biphenyl]-4-yl)carbonyl]-10,11-dihydro-5H-pyrrolo[2,1-c][1,4]benzodiazepin-3-yl}(4-methyl-1-piperazinyl)methanone] | 1 µM | –
6 | COc1cc(-c2ccccc2C)ccc1C(=O)N1Cc2ccc(C(=O)N(C)CCCN(C)C)n2Cc2ccccc21 [Example 11, N-Methyl-N-[3-(dimethylamino)propyl]-10-[(3-methoxy-2′-methyl[1,1′-biphenyl]-4-yl)carbonyl]-10,11-dihydro-5H-pyrrolo[2,1-c][1,4]benzodiazepine-3-carboxamide] | 0.0704 µM | –
7 | COc1cccc(-c2cc(OC)c(C(=O)N3Cc4ccc(C(=O)NCCCN(C)C)n4Cc4ccccc43)cc2Cl)c1 [Example 79, 10-[(6-Chloro-3,3′-dimethoxy[1,1′-biphenyl]-4-yl)carbonyl]-N-[3-(dimethylamino)propyl]-10,11-dihydro-5H-pyrrolo[2,1-c][1,4]benzodiazepine-3-carboxamide] | – | 0%
8 | COc1ccccc1-c1ccc(C(=O)N2Cc3ccc(C(=O)N(C)CCN(C)C)n3Cc3ccccc32)cc1 [Example 90, N-[2-(Dimethylamino)ethyl]-10-[(2′-methoxy[1,1′-biphenyl]-4-yl)carbonyl]-N-methyl-10,11-dihydro-5H-pyrrolo[2,1-c][1,4]benzodiazepine-3-carboxamide] | – | 63%
9 | COc1cc(-c2ccccc2C)c(Cl)cc1C(=O)N1Cc2ccc(C(=O)N(C)CCCN(C)C)n2Cc2ccccc21 [Example 98, 10-[(6-Chloro-3-methoxy-2′-methyl[1,1′-biphenyl]-4-yl)carbonyl]-N-[3-(dimethylamino)propyl]-N-methyl-10,11-dihydro-5H-pyrrolo[2,1-c][1,4]benzodiazepine-3-carboxamide] | 0.238 µM | –
10 | COc1cccc(-c2ccc(C(=O)N3Cc4ccc(C(=O)N(C)CCN(C)C)n4Cc4ccccc43)cc2C)c1 [Example 89, N-[2-(Dimethylamino)ethyl]-10-[(3′-methoxy-2-methyl[1,1′-biphenyl]-4-yl)carbonyl]-N-methyl-10,11-dihydro-5H-pyrrolo[2,1-c][1,4]benzodiazepine-3-carboxamide] | – | 50%
11 | COc1cccc(-c2ccc(C(=O)N3Cc4ccc(C(=O)N(C)CCN(C)C)n4Cc4ccccc43)cc2OC)c1 [Example 95, 10-[(2,3′-Dimethoxy[1,1′-biphenyl]-4-yl)carbonyl]-N-[2-(dimethylamino)ethyl]-N-methyl-10,11-dihydro-5H-pyrrolo[2,1-c][1,4]benzodiazepine-3-carboxamide] | – | 68%
12 | Cc1cc(C(=O)N2Cc3ccc(C(=O)N(C)CCCN(C)C)n3Cc3ccccc32)ccc1-c1ccccc1C(F)(F)F [Example 97, N-[3-(Dimethylamino)propyl]-N-methyl-10-{[2-methyl-2′-(trifluoromethyl)[1,1′-biphenyl]-4-yl]carbonyl}-10,11-dihydro-5H-pyrrolo[2,1-c][1,4]benzodiazepine-3-carboxamide] | 1.09 µM | –
13 | CN(C)CCCNC(=O)c1ccc2n1Cc1ccccc1N(C(=O)c1ccc(-c3cccc4ccccc34)cc1Cl)C2 [Example 83, 10-[2-Chloro-4-(1-naphthyl)benzoyl]-N-[3-(dimethylamino)propyl]-10,11-dihydro-5H-pyrrolo[2,1-c][1,4]benzodiazepine-3-carboxamide] | – | 8%

Results, then the compound that gave them:

Row | IC50 | inhibition at 0.1 µM | Compound
14 | 1.81 µM | – | C=CCN1CCN(C(=O)c2ccc3n2Cc2ccccc2N(C(=O)c2cc(Cl)c(-c4ccccc4C)cc2OC)C3)CC1 [Example 219, (4-Allyl-1-piperazinyl){10-[(6-chloro-3-methoxy-2′-methyl[1,1′-biphenyl]-4-yl)carbonyl]-10,11-dihydro-5H-pyrrolo[2,1-c][1,4]benzodiazepin-3-yl}methanone]
15 | 0.367 µM | – | COc1ccccc1-c1ccc(C(=O)N2Cc3ccc(C(=O)N4CCN(CCN(C)C)CC4)n3Cc3ccccc32)cc1C [Example 195, {4-[2-(Dimethylamino)ethyl]-1-piperazinyl}{10-[(2′-methoxy-2-methyl[1,1′-biphenyl]-4-yl)carbonyl]-10,11-dihydro-5H-pyrrolo[2,1-c][1,4]benzodiazepin-3-yl}methanone]
16 | – | 43% | COc1ccccc1-c1ccc(C(=O)N2Cc3ccc(C(=O)N(C)CCCN(C)C)n3Cc3ccccc32)cc1 [Example 103, N-[3-(Dimethylamino)propyl]-10-[(2′-methoxy[1,1′-biphenyl]-4-yl)carbonyl]-N-methyl-10,11-dihydro-5H-pyrrolo[2,1-c][1,4]benzodiazepine-3-carboxamide]
17 | – | 85% | Cc1ccccc1-c1ccc(C(=O)N2Cc3ccc(C(=O)N(C)CCCN(C)C)n3Cc3ccccc32)cc1 [Example 104, N-[3-(Dimethylamino)propyl]-N-methyl-10-[(2′-methyl[1,1′-biphenyl]-4-yl)carbonyl]-10,11-dihydro-5H-pyrrolo[2,1-c][1,4]benzodiazepine-3-carboxamide]
18 | 0.913 µM | – | Cc1cc(C(=O)N2Cc3ccc(C(=O)N4CCC[C@H]4CN4CCCC4)n3Cc3ccccc32)ccc1-c1ccccc1C(F)(F)F [Example 258, (10-{[2-Methyl-2′-(trifluoromethyl)[1,1′-biphenyl]-4-yl]carbonyl}-10,11-dihydro-5H-pyrrolo[2,1-c][1,4]benzodiazepin-3-yl)[(2S)-2-(1-pyrrolidinylmethyl)pyrrolidinyl]methanone]
19 | 0.373 µM | – | COc1ccccc1-c1ccc(C(=O)N2Cc3ccc(C(=O)N4CCN(CCCN(C)C)CC4)n3Cc3ccccc32)cc1 [Example 246, {4-[3-(Dimethylamino)propyl]-1-piperazinyl}{10-[(2′-methoxy[1,1′-biphenyl]-4-yl)carbonyl]-10,11-dihydro-5H-pyrrolo[2,1-c][1,4]benzodiazepin-3-yl}methanone]
20 | 0.481 µM | – | COc1cc(-c2ccccc2C)c(Cl)cc1C(=O)N1Cc2ccc(C(=O)N3CC[C@@H](N(C)C)C3)n2Cc2ccccc21 [Example 273, {10-[(6-Chloro-3-methoxy-2′-methyl[1,1′-biphenyl]-4-yl)carbonyl]-10,11-dihydro-5H-pyrrolo[2,1-c][1,4]benzodiazepin-3-yl}[(3R)-3-(dimethylamino)pyrrolidinyl]methanone]
21 | 0.317 µM | – | COc1ccccc1-c1ccc(C(=O)N2Cc3ccc(C(=O)N4CCN(CCN5CCOCC5)CC4)n3Cc3ccccc32)cc1C [Example 206, {10-[(2′-Methoxy-2-methyl[1,1′-biphenyl]-4-yl)carbonyl]-10,11-dihydro-5H-pyrrolo[2,1-c][1,4]benzodiazepin-3-yl}{4-[2-(4-morpholinyl)ethyl]-1-piperazinyl}methanone]
22 | 0.524 µM | – | COc1cc(-c2ccccc2C)c(Cl)cc1C(=O)N1Cc2ccc(C(=O)N3CCN(CCN(C)C)CC3)n2Cc2ccccc21 [Example 197, {10-[(6-Chloro-3-methoxy-2′-methyl[1,1′-biphenyl]-4-yl)carbonyl]-10,11-dihydro-5H-pyrrolo[2,1-c][1,4]benzodiazepin-3-yl}{4-[2-(dimethylamino)ethyl]-1-piperazinyl}methanone]
23 | 0.301 µM | – | COc1ccccc1-c1ccc(C(=O)N2Cc3ccc(C(=O)N4CC[C@@H](N(C)C)C4)n3Cc3ccccc32)cc1C [Example 272, [(3R)-3-(Dimethylamino)pyrrolidinyl]{10-[(2′-methoxy-2-methyl[1,1′-biphenyl]-4-yl)carbonyl]-10,11-dihydro-5H-pyrrolo[2,1-c][1,4]benzodiazepin-3-yl}methanone]
24 | – | 27% | COc1ccccc1-c1ccc(C(=O)N2Cc3ccc(C(=O)N(C)CCCN(C)C)n3Cc3ccccc32)cc1C [Example 100, N-[3-(Dimethylamino)propyl]-10-[(2′-methoxy-2-methyl[1,1′-biphenyl]-4-yl)carbonyl]-N-methyl-10,11-dihydro-5H-pyrrolo[2,1-c][1,4]benzodiazepine-3-carboxamide]
25 | 0.983 µM | – | Cc1cc(C(=O)N2Cc3ccc(C(=O)N4CC[C@@H](N(C)C)C4)n3Cc3ccccc32)ccc1-c1ccccc1C(F)(F)F [Example 271, [(3R)-3-(Dimethylamino)pyrrolidinyl](10-{[2-methyl-2′-(trifluoromethyl)[1,1′-biphenyl]-4-yl]carbonyl}-10,11-dihydro-5H-pyrrolo[2,1-c][1,4]benzodiazepin-3-yl)methanone]
